Assay results: BigSolDB 2.1

O=c1[nH]c2ccccc2n1CCCN1CCC(n2c(=O)[nH]c3cc(Cl)ccc32)CC1
solubility (mole fraction)
Settings | 293.15 K | 298.15 K | 323.15 K | 328.15 K | 333.15 K
in DMF | – | – | 0.000679 | 0.000791 | 0.000911
in DMSO | – | – | 0.00142 | 0.00171 | 0.00209
in isopropanol | 1.85e-05 | 2.29e-05 | 6.48e-05 | 7.7e-05 | 8.99e-05
in water | – | – | 6.38e-07 | 7.73e-07 | 9.34e-07
